Measurements published in the supplement of paper PMC10307832.

Key:
Experiment in all cases: relative viability (nuclei count vs DMSO), 5 days (fraction); higher = more cells survive
Wnt-C59 + Dasatinib = compound: CC1=NC=CC(=C1)C2=CC=C(C=C2)CC(=O)NC3=CC=C(C=C3)C4=CN=CC=C4 [Wnt-C59] + Cc1nc(Nc2ncc(C(=O)Nc3c(C)cccc3Cl)s2)cc(N2CCN(CCO)CC2)n1 [Dasatinib] (partner 0.075 µM)
Summary of the method: (§1)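 Lung cancer cell lines were seeded in 1536-well plates and dosed by pin tool the next day, with either a single drug or a fixed anchor-drug dose combined with five library-drug doses (not always all listed) spaced in √10 steps. Five days later, one step fixed the cells and stained their nuclei (final 0.05% Triton X-100, 1% formaldehyde, 1 ug/ml Hoechst), and nuclei were counted on 4× images. Relative viability is the nuclei count in treated wells divided by the count in vehicle wells, and each value is the median of duplicate plates.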

Wnt-C59 + Decitabine = compound: CC1=NC=CC(=C1)C2=CC=C(C=C2)CC(=O)NC3=CC=C(C=C3)C4=CN=CC=C4 [Wnt-C59] + Nc1ncn([C@H]2C[C@H](O)[C@@H](CO)O2)c(=O)n1 [Decitabine] (partner 2 µM)
Summary of the method: as §1

Lapatinib + Navitoclax = compound: CS(=O)(=O)CCNCc1ccc(-c2ccc3ncnc(Nc4ccc(OCc5cccc(F)c5)c(Cl)c4)c3c2)o1 [Lapatinib] + CC1(C)CCC(c2ccc(Cl)cc2)=C(CN2CCN(c3ccc(C(=O)NS(=O)(=O)c4ccc(N[C@H](CCN5CCOCC5)CSc5ccccc5)c(S(=O)(=O)C(F)(F)F)c4)cc3)CC2)C1 [Navitoclax] (partner 0.5 µM)
Summary of the method: as §1

Lapatinib + Phenformin = compound: CS(=O)(=O)CCNCc1ccc(-c2ccc3ncnc(Nc4ccc(OCc5cccc(F)c5)c(Cl)c4)c3c2)o1 [Lapatinib] + N=C(N)NC(=N)NCCc1ccccc1 [Phenformin] (partner 250 µM)
Summary of the method: as §1

## NCI-H1993
Wnt-C59 + Dasatinib; first compound 0.001 µM
  relative viability: 0.601
Wnt-C59 + Dasatinib; first compound 0.03162 µM
  relative viability: 0.631
Wnt-C59 + Dasatinib; first compound 0.1 µM
  relative viability: 0.631
Wnt-C59 + Decitabine; first compound 0.001 µM
  relative viability: 0.597
Wnt-C59 + Decitabine; first compound 0.01 µM
  relative viability: 0.594
Wnt-C59 + Decitabine; first compound 0.03162 µM
  relative viability: 0.64
Wnt-C59 + Decitabine; first compound 0.1 µM
  relative viability: 0.66
Lapatinib + Navitoclax; first compound 0.02 µM
  relative viability: 0.831
Lapatinib + Navitoclax; first compound 0.2 µM
  relative viability: 0.618
Lapatinib + Navitoclax; first compound 0.6325 µM
  relative viability: 0.69
Lapatinib + Navitoclax; first compound 2 µM
  relative viability: 0.51
Lapatinib + Phenformin; first compound 0.02 µM
  relative viability: 0.597
Lapatinib + Phenformin; first compound 0.2 µM
  relative viability: 0.509
Lapatinib + Phenformin; first compound 0.6325 µM
  relative viability: 0.583
Lapatinib + Phenformin; first compound 2 µM
  relative viability: 0.556

## LOU-NH91
Wnt-C59 + Dasatinib; first compound 0.001 µM
  relative viability: 0.6
Wnt-C59 + Dasatinib; first compound 0.01 µM
  relative viability: 0.529
Wnt-C59 + Dasatinib; first compound 0.03162 µM
  relative viability: 0.523
Wnt-C59 + Dasatinib; first compound 0.1 µM
  relative viability: 0.57
Wnt-C59 + Decitabine; first compound 0.001 µM
  relative viability: 0.873
Wnt-C59 + Decitabine; first compound 0.01 µM
  relative viability: 0.838
Wnt-C59 + Decitabine; first compound 0.03162 µM
  relative viability: 0.83
Wnt-C59 + Decitabine; first compound 0.1 µM
  relative viability: 0.822
Lapatinib + Navitoclax; first compound 0.02 µM
  relative viability: 0.555
Lapatinib + Navitoclax; first compound 0.06325 µM
  relative viability: 0.558
Lapatinib + Navitoclax; first compound 0.2 µM
  relative viability: 0.502
Lapatinib + Navitoclax; first compound 0.6325 µM
  relative viability: 0.541
Lapatinib + Navitoclax; first compound 2 µM
  relative viability: 0.324
Lapatinib + Phenformin; first compound 0.02 µM
  relative viability: 0.463
Lapatinib + Phenformin; first compound 0.06325 µM
  relative viability: 0.533
Lapatinib + Phenformin; first compound 0.2 µM
  relative viability: 0.479
Lapatinib + Phenformin; first compound 0.6325 µM
  relative viability: 0.533
Lapatinib + Phenformin; first compound 2 µM
  relative viability: 0.433

## 201T
Wnt-C59 + Dasatinib; first compound 0.001 µM
  relative viability: 0.615
Wnt-C59 + Dasatinib; first compound 0.01 µM
  relative viability: 0.578
Wnt-C59 + Dasatinib; first compound 0.03162 µM
  relative viability: 0.505
Wnt-C59 + Dasatinib; first compound 0.1 µM
  relative viability: 0.558
Wnt-C59 + Decitabine; first compound 0.001 µM
  relative viability: 0.861
Wnt-C59 + Decitabine; first compound 0.01 µM
  relative viability: 0.824
Wnt-C59 + Decitabine; first compound 0.03162 µM
  relative viability: 0.902
Wnt-C59 + Decitabine; first compound 0.1 µM
  relative viability: 0.812
Lapatinib + Navitoclax; first compound 0.02 µM
  relative viability: 1.16
Lapatinib + Navitoclax; first compound 0.06325 µM
  relative viability: 1.22
Lapatinib + Navitoclax; first compound 0.2 µM
  relative viability: 1.16
Lapatinib + Navitoclax; first compound 0.6325 µM
  relative viability: 1.22
Lapatinib + Navitoclax; first compound 2 µM
  relative viability: 1.2
Lapatinib + Phenformin; first compound 0.02 µM
  relative viability: 0.387
Lapatinib + Phenformin; first compound 0.06325 µM
  relative viability: 0.343
Lapatinib + Phenformin; first compound 0.2 µM
  relative viability: 0.438
Lapatinib + Phenformin; first compound 0.6325 µM
  relative viability: 0.44
Lapatinib + Phenformin; first compound 2 µM
  relative viability: 0.431

## LXF-289
Wnt-C59 + Dasatinib; first compound 0.001 µM
  relative viability: 0.251
Wnt-C59 + Dasatinib; first compound 0.01 µM
  relative viability: 0.25
Wnt-C59 + Dasatinib; first compound 0.03162 µM
  relative viability: 0.231
Wnt-C59 + Dasatinib; first compound 0.1 µM
  relative viability: 0.221
Wnt-C59 + Decitabine; first compound 0.001 µM
  relative viability: 0.396
Wnt-C59 + Decitabine; first compound 0.01 µM
  relative viability: 0.369
Wnt-C59 + Decitabine; first compound 0.03162 µM
  relative viability: 0.446
Wnt-C59 + Decitabine; first compound 0.1 µM
  relative viability: 0.386
Lapatinib + Navitoclax; first compound 0.02 µM
  relative viability: 0.901
Lapatinib + Navitoclax; first compound 0.06325 µM
  relative viability: 0.928
Lapatinib + Navitoclax; first compound 0.2 µM
  relative viability: 0.957
Lapatinib + Navitoclax; first compound 0.6325 µM
  relative viability: 0.94
Lapatinib + Navitoclax; first compound 2 µM
  relative viability: 0.85
Lapatinib + Phenformin; first compound 0.02 µM
  relative viability: 0.142
Lapatinib + Phenformin; first compound 0.06325 µM
  relative viability: 0.482
Lapatinib + Phenformin; first compound 0.2 µM
  relative viability: 0.509
Lapatinib + Phenformin; first compound 0.6325 µM
  relative viability: 0.488
Lapatinib + Phenformin; first compound 2 µM
  relative viability: 0.52
